The test addresses T1, human mGluR2 (Homo sapiens, UniProt Q14416).
T1 construct: expressed in transfected cells; host or cells: HEK293 clonal line
The experiment in a line: mGluR2 cAMP assay (HTRF) in HEK293 cells clonally expressing human mGluR2. It counts as cell-based. The settings on record: HEK293 cells expressing human mGluR2, 1 μM forskolin, 1 μM LY-341495, 30 min. Here is the method: • Cell Culture. Clonally expressed human mGluR2 in HEK293 background was glutamate starved overnight in media without glutamine (GIBCO MEM 12360), containing 10% FBS, 1% penicillin streptomycin. • cAMP Measurement. On the day of the assay, media was removed, cells washed with PBS, cells harvested and pelleted by centrifugation. Cell pellets were resuspended in stimulation buffer without forskolin and counted. A solution of 1.25×10^6 cells/mL was prepared and dispensed to plates using a Combi liquid handler (Thermo). A standard curve was created using a top concentration of cAMP of 1 μM in the stimulation buffer, 1:3 dilutions over 14 points in the absence of cells. Plates were read by time-resolved fluorescence at […] and a ratio was calculated via in house software, (665 nM/618 nM)*10^4. In house software converted the fluorescence value ratios to units of cAMP concentration, which is then used to calculate % inhibition for each test compound. • MGluR2 cAMP Assay Materials and Methods. Compounds were added to white, standard volume 384 non-binding surface plates (Corning 3574). Cells were resuspended in stimulation buffer consisting of Hanks Balanced Salt Solution (14175-095) pH 7.0, 20 mM HEPES, 2.0 mM CaCl2, 5.0 mM MgCl2, and 1 mM IBMX (Sigma 15879), 1 μM forskolin, and 1 μM LY-341495 for 30 min. Buffer without forskolin was used as a negative control. Solutions of D2 and cryptate detection reagents from the CISBIO dynamic cAMP kit (62AM4PEJ) were diluted 1:40 in lysis buffer. Lysis buffer consisted of 50 mM Phosphate Buffer pH 7.0, 800 mM Potassium Fluoride, 0.2% BSA, and 1.0% Triton. Assay reaction was terminated by addition of detection reagents in lysis buffer. One hour later, plates were read on a PE Viewlux. Data was extracted, and concentration response curves generated by fitting the data to a standard 4 parameter logistic equation from which EC50 values were determined.

Molecules are shown by their SMILES.

T1 sequence (Q14416 19-872): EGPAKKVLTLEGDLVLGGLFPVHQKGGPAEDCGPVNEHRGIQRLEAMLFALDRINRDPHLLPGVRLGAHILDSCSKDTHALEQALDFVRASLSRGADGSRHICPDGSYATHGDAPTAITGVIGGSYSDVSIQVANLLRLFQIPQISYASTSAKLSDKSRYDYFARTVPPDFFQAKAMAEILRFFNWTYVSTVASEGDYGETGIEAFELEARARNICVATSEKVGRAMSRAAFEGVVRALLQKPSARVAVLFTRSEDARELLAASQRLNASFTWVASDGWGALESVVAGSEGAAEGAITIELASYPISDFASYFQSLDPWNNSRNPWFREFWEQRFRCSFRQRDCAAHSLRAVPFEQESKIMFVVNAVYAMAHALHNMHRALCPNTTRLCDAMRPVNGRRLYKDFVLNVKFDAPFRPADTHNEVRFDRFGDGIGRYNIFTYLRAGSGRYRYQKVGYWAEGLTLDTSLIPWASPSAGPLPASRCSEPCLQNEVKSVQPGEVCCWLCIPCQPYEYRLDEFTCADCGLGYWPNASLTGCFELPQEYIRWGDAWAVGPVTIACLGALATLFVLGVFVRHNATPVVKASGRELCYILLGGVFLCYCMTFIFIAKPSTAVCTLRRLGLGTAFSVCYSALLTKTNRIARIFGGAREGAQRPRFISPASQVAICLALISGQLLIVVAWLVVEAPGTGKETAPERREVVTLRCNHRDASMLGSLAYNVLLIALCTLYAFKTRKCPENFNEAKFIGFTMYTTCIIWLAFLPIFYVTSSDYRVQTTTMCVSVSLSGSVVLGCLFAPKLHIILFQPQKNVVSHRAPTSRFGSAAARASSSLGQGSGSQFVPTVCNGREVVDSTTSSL

The compound `Fc1ccc(C2CC2CNc2ccn3c(CC4CC4)nnc3c2Cl)cc1` (racemic) [Example 1, 8-chloro-3-(cyclopropylmethyl)-N-((2-(4-fluorophenyl)cyclopropyl)methyl)-[1,2,4]triazolo[4,3-a]pyridin-7-amine] came in with an EC50 of 9 nM. This lies in the single-digit nanomolar range. As for `Clc1c(NC[C@@H]2CCC[C@H]2c2ccccc2)ccn2c(CC3CC3)nnc12` (racemic) [Example 3, (+/−)Trans-8-chloro-3-(cyclopropylmethyl)-N-((2-phenylcyclopentyl)methyl)-[1,2,4]triazolo[4,3-a]pyridin-7-amine], the midpoint of the response, the EC50, lay at 5 nM.

Consider `Clc1c(NC[C@@H]2C[C@H]2c2ccccc2)ccn2c(CC3CC3)nnc12` (relative stereo) [Example 4, Trans-8-chloro-3-(cyclopropylmethyl)-N-((2-phenylcyclopropyl)methyl)-[1,2,4]triazolo[4,3-a]pyridin-7-amine], for which a half-maximal effect (EC50) was put at 5 nM. As for `COc1ccccc1[C@@H]1C[C@H]1CNc1ccn2c(CC3CC3)nnc2c1Cl` (relative stereo) [Example 6, Trans-8-chloro-3-(cyclopropylmethyl)-N-((2-(2-methoxyphenyl)cyclopropyl)methyl)-[1,2,4]triazolo[4,3-a]pyridin-7-amine], the figure is 7 nM; as for `FC(F)Oc1ccccc1[C@@H]1C[C@H]1CNc1ccn2c(CC3CC3)nnc2c1Cl` (relative stereo) [Example 7, Trans-8-chloro-3-(cyclopropylmethyl)-N-((2-(2-(difluoromethoxy)phenyl)cyclopropyl)methyl)-[1,2,4]triazolo[4,3-a]pyridin-7-amine], 6 nM; as for `FC(F)(F)Oc1ccccc1[C@@H]1C[C@H]1CNc1ccn2c(CC3CC3)nnc2c1Cl` (relative stereo) [Example 9, Trans-8-chloro-3-(cyclopropylmethyl)-N-((2-(2-(trifluoromethoxy)phenyl)cyclopropyl)methyl)-[1,2,4]triazolo[4,3-a]pyridin-7-amine], 4 nM. In the case of `Clc1c(NC[C@H]2CCC[C@@H]2c2ccccc2)ccn2c(CC3CC3)nnc12` (single isomer, unassigned) [Example 45] it was 12 nM. Turning to `Clc1c(NC[C@@H]2CCC[C@H]2c2ccccc2)ccn2c(CC3CC3)nnc12` (single isomer, unassigned) [Example 46], a half-maximal response (EC50) required 5 nM. In the case of `Fc1ccc([C@H]2C[C@@H]2CNc2ccn3c(CC(F)(F)F)cnc3c2C(F)(F)F)cc1` (stereo in doubt) [Example 31, N-(((1S,2S)-2-(4-Fluorophenyl)cyclopropyl)methyl)-3-(2,2,2-trifluoroethyl)-8-(trifluoromethyl)imidazo[1,2-a]pyridin-7-amine] it was 24 nM. `Fc1ccc([C@@H]2C[C@H]2CNc2ccn3c(CC(F)(F)F)cnc3c2C(F)(F)F)cc1` (stereo in doubt) [Example 32, N-(((1R,2R)-2-(4-Fluorophenyl)cyclopropyl)methyl)-3-(2,2,2-trifluoroethyl)-8-(trifluoromethyl)imidazo[1,2-a]pyridin-7-amine]: the EC50 was found to be 44 nM. Regarding `Clc1c(NC2CCC(c3ccccc3)C2)ccn2c(CC3CC3)nnc12` (stereo not shown) [Example 2, 8-Chloro-3-(cyclopropylmethyl)-N-(3-phenylcyclopentyl)-[1,2,4]triazolo[4,3-a]pyridin-7-amine], a half-maximal response (EC50) required 26 nM.

`Fc1ccc([C@H]2C[C@@H]2CNc2ccn3c(CC4CC4)nnc3c2Cl)cc1` [Example 5, 8-Chloro-3-(cyclopropylmethyl)-N-(((1S,2S)-2-(4-fluorophenyl)cyclopropyl)methyl)-[1,2,4]triazolo[4,3-a]pyridin-7-amine]: the EC50 was determined as 5 nM. Compared with the last compound, the EC50 is about 5.2-fold lower. In the case of `COc1cccc([C@H]2C[C@@H]2CNc2ccn3c(CC4CC4)nnc3c2Cl)c1` [Example 8, 8-Chloro-3-(cyclopropylmethyl)-N-(((1S,2S)-2-(3-methoxyphenyl)cyclopropyl)methyl)-[1,2,4]triazolo[4,3-a]pyridin-7-amine] it was 12 nM; in that of `COc1c(F)ccc(F)c1[C@H]1C[C@@H]1CNc1ccn2c(CC3CC3)nnc2c1Cl` [Example 10, 8-Chloro-3-(cyclopropylmethyl)-N-(((1S,2S)-2-(3,6-difluoro-2-methoxyphenyl)cyclopropyl)methyl)-[1,2,4]triazolo[4,3-a]pyridin-7-amine], 6 nM; in that of `Clc1c(NC[C@H]2C[C@@H]2c2cccc3c2CCO3)ccn2c(CC3CC3)nnc12` [Example 11, 8-Chloro-3-(cyclopropylmethyl)-N-(((1S,2S)-2-(2,3-dihydrobenzofuran-4-yl)cyclopropyl)methyl)-[1,2,4]triazolo[4,3-a]pyridin-7-amine], 12 nM. In the case of `Fc1cnc(C2CC2CNc2ccn3c(CC4CC4)nnc3c2Cl)nc1` (stereo not shown) [Example 12, 8-Chloro-3-(cyclopropylmethyl)-N-((2-(5-fluoropyrimidin-2-yl)cyclopropyl)methyl)-[1,2,4]triazolo[4,3-a]pyridin-7-amine] it was 83 nM. In the case of `Fc1cnc(C2CC2CNc2ccn3c(CC4CC4)nnc3c2C(F)(F)F)nc1` (stereo not shown) [Example 13, 3-(Cyclopropylmethyl)-N-((2-(5-fluoropyrimidin-2-yl)cyclopropyl)methyl)-8-(trifluoromethyl)-[1,2,4]triazolo[4,3-a]pyridin-7-amine] it was 102 nM; in that of `CC(Nc1ccn2c(CC3CC3)nnc2c1Cl)[C@@H]1C[C@H]1c1ccc(F)cc1` (stereo partly drawn) [Example 14, 8-Chloro-3-(cyclopropylmethyl)-N-(1-((1R,2R)-2-(4-fluorophenyl)cyclopropyl)ethyl)-[1,2,4]triazolo[4,3-a]pyridin-7-amine], 55 nM; in that of `CC(Nc1ccn2c(CC3CC3)nnc2c1Cl)[C@H]1C[C@@H]1c1ccc(F)cc1` (stereo partly drawn) [Example 15, 8-Chloro-3-(cyclopropylmethyl)-N-(1-((1S,2S)-2-(4-fluorophenyl)cyclopropyl)ethyl)-[1,2,4]triazolo[4,3-a]pyridin-7-amine], 31 nM. In the case of `Fc1ccc(C2(CNc3ccn4c(CC5CC5)nnc4c3Cl)CC2)cc1` [Example 16, 8-chloro-3-(cyclopropylmethyl)-N-((1-(4-fluorophenyl)cyclopropyl)methyl)-[1,2,4]triazolo[4,3-a]pyridin-7-amine], the EC50 amounted to 46 nM. The compound `N#Cc1ccccc1C1CC1CNc1ccn2c(CC3CC3)nnc2c1Cl` (stereo not shown) [Example 17, 2-(2-(((8-chloro-3-(cyclopropylmethyl)-[1,2,4]triazolo[4,3-a]pyridin-7-yl)amino)methyl)cyclopropyl)benzonitrile] registered an EC50 of 6 nM. Against the preceding compound, the EC50 is about 7.7-fold lower. Take `Clc1c(NCC2CC2c2ccncc2)ccn2c(CC3CC3)nnc12` (stereo not shown) [Example 18, 8-Chloro-3-(cyclopropylmethyl)-N-((2-(pyridin-4-yl)cyclopropyl)methyl)-[1,2,4]triazolo[4,3-a]pyridin-7-amine]: the half-maximal effective concentration (EC50) was determined as 244 nM. As for `Clc1c(NCC2CC2c2cccnc2)ccn2c(CC3CC3)nnc12` (stereo not shown) [Example 19, 8-chloro-3-(cyclopropylmethyl)-N-((2-(pyridin-3-yl)cyclopropyl)methyl)-[1,2,4]triazolo[4,3-a]pyridin-7-amine], the figure is 367 nM; as for `Fc1ccc([C@H]2C[C@@H]2CNc2ccn3c(CC4CC4)nnc3c2C(F)(F)F)cc1` [Example 20, 3-(Cyclopropylmethyl)-N-(((1S,2S)-2-(4-fluorophenyl)cyclopropyl)methyl)-8-(trifluoromethyl)-[1,2,4]triazolo[4,3-a]pyridin-7-amine], 2 nM. In the case of `Fc1ccc([C@H]2C[C@@H]2CNc2ccn3c(CC(F)(F)F)nnc3c2C(F)(F)F)cc1` [Example 21, N-(((1S,2S)-2-(4-Fluorophenyl)cyclopropyl)methyl)-3-(2,2,2-trifluoroethyl)-8-(trifluoromethyl)-[1,2,4]triazolo[4,3-a]pyridin-7-amine] it was 2 nM; in that of `Fc1ccc([C@@H]2C[C@H]2CNc2ccn3c(CC4CC4)nnc3c2C(F)(F)F)cc1` [Example 22, 3-(Cyclopropylmethyl)-N-(((1R,2R)-2-(4-fluorophenyl)cyclopropyl)methyl)-8-(trifluoromethyl)-[1,2,4]triazolo[4,3-a]pyridin-7-amine], 1 nM; in that of `Fc1ccc(C2CC2CNc2ccn3c(CC(F)(F)F)cnc3c2C(F)(F)F)cc1` (stereo not shown) [Example 25, N-((2-(4-Fluorophenyl)cyclopropyl)methyl)-3-(2,2,2-trifluoroethyl)-8-(trifluoromethyl)imidazo[1,2-a]pyridin-7-amine], 41 nM. Turning to `N#Cc1c(NCC2CC2c2cccc(F)c2)ccn2c(CC(F)(F)F)cnc12` (stereo not shown) [Example 26, 7-(((2-(3-Fluorophenyl)cyclopropyl)methyl)amino)-3-(2,2,2-trifluoroethyl)imidazo[1,2-a]pyridine-8-carbonitrile], the EC50 is 54 nM.

For the origin of these results see patent US8765767B2, “Positive allosteric modulators of mGluR2” (Bristol-Myers Squibb Company, priority 2012, dated 2014).
